Experimental data from patent US8614193.
Where “and” joins values, the source holds several entries; their conditions need not be identical. Equal values may be shown once. Read-outs that look alike come from different tables or passages of the source.

[1] = disulfide bond, 15-membered ring, I2 (10 eq), CH2Cl2/MeOH 9:1, 0.43 mM

`CC(C)(C)OC(=O)CC[C@H]1NC(=O)C[C@@H](/C=C/CCSC(c2ccccc2)(c2ccccc2)c2ccccc2)OC(=O)CC(O)C2(CC2)NC(=O)[C@@H](CSC(c2ccccc2)(c2ccccc2)c2ccccc2)NC1=O` (stereo partly drawn) showed a ring closure, isolated yield (from (R)-4-{(S)-1-[1-(2-Carboxy-1-hydroxy-ethyl)-cyclopropylcarbamoyl]-2-tritylsulfanyl-ethylcarbamoyl}-4-((E)-(S)-3-hydroxy-7-tritylsulfanyl-hept-4-enoylamino)-butyric acid tert-butyl ester, ester bond, 15-membered ring, MNBA/DMAP, CH2Cl2, 1.07 mM) of 56%.
`CC(C)(C)OC(=O)CC[C@H]1NC(=O)C[C@@H](/C=C/CCSC(c2ccccc2)(c2ccccc2)c2ccccc2)OC(=O)CNC(=O)C(C)(C)NC(=O)[C@@H](CSC(c2ccccc2)(c2ccccc2)c2ccccc2)NC1=O` gave a ring closure, isolated yield (from (E)-(S)-3-hydroxy-7-tritylsulfanyl-hept-4-enoyl-dGlu(OtBu)-dCys(Trt)-Aib-Gly-OH, ester bond, 16-membered ring, MNBA/DMAP, CH2Cl2/THF, 0.94 mM, 2 steps) of 63%.
Work on `CC(C)(C)OC(=O)CC[C@H]1NC(=O)C[C@@H](/C=C/CCSC(c2ccccc2)(c2ccccc2)c2ccccc2)OC(=O)CNC(=O)C2(CC2)NC(=O)[C@@H](CSC(c2ccccc2)(c2ccccc2)c2ccccc2)NC1=O` yielded a ring closure, isolated yield (from (E)-(S)-3-hydroxy-7-tritylsulfanyl-hept-4-enoyl-dGlu(OtBu)-dCys(Trt)-Acc-Gly-OH, ester bond, 16-membered ring, MNBA/DMAP, CH2Cl2/THF, 0.85 mM, 25.0 °C, 2 steps) of 29%.
Work on `CC(C)[C@@H]1NC(=O)[C@@H](CSC(c2ccccc2)(c2ccccc2)c2ccccc2)NC(=O)C2(CC2)NC(=O)C[C@@H](/C=C/CCSC(c2ccccc2)(c2ccccc2)c2ccccc2)OC(=O)CNC1=O` yielded a ring closure, isolated yield (from (3S,4E)-3-hydroxy-7-(tritylthio)hept-4-enoyl-Ac3c-dCys(Trt)-Val-Gly-OH?, ester bond, 16-membered ring, MNBA/DMAP, CH2Cl2/THF, 0.77 mM, 2 steps) of 50%.
Work on `O=C1C[C@@H](/C=C/CCSC(c2ccccc2)(c2ccccc2)c2ccccc2)OC(=O)CNC(=O)C2(CC2)NC(=O)[C@@H](CSC(c2ccccc2)(c2ccccc2)c2ccccc2)NC(=O)CN1` yielded a ring closure, isolated yield (from (3S,4E)-3-hydroxy-7-(tritylthio)hept-4-enoyl-Gly-dCys(Trt)-Ac3c-Gly-OH, ester bond, 16-membered ring, MNBA/DMAP, CH2Cl2, 0.85 mM) of 45%.
With `O=C1C[C@@H](/C=C/CCSC(c2ccccc2)(c2ccccc2)c2ccccc2)OC(=O)CNC(=O)C2(CC2)NC(=O)[C@@H](CSC(c2ccccc2)(c2ccccc2)c2ccccc2)NC(=O)[C@@H](Cc2cccc(Cl)c2)N1` the ring closure, isolated yield (from (3S,4E)-3-hydroxy-7-(tritylthio)hept-4-enoyl-dPhe(3-Cl)-dCys(Trt)-Acc(1-aminocyclopropanecarbonyl)-Gly-OH, ester bond, 16-membered ring, MNBA/DMAP, CH2Cl2, 1.06 mM) was 40%.
For `O=C1C[C@@H](/C=C/CCSC(c2ccccc2)(c2ccccc2)c2ccccc2)OC(=O)CNC(=O)C2(CC2)NC(=O)[C@@H](CSC(c2ccccc2)(c2ccccc2)c2ccccc2)NC(=O)[C@@H](Cc2ccccc2)N1`, the ring closure, isolated yield (from (3S,4E)-3-hydroxy-7-(tritylthio)hept-4-enoyl-dPhe-dCys(Trt)-Acc(1-aminocyclopropanecarbonyl)-Gly-OH, ester bond, 16-membered ring, MNBA/DMAP, CH2Cl2/THF, 0.83 mM, 2 steps) was 58%.
With `O=C1C[C@@H](/C=C/CCSC(c2ccccc2)(c2ccccc2)c2ccccc2)OC(=O)CNC(=O)C2(CC2)NC(=O)[C@@H](CSC(c2ccccc2)(c2ccccc2)c2ccccc2)NC(=O)[C@@H](Cc2cccnc2)N1` the ring closure, isolated yield (from (3S,4E)-3-hydroxy-7-(tritylthio)hept-4-enoyl-d3Pal-dCys(Trt)-Acc(1-aminocyclopropanecarbonyl)-Gly-OH?, ester bond, 16-membered ring, MNBA/DMAP, CH2Cl2/THF, 0.67 mM, 2 steps) was 96%.
In the case of “3-((E)-(1S,9S,20R)-5-Hydroxy-6,6-cyclopropyl-3,8,18,21-tetraoxo-2-oxa-11,12-dithia-7,19,22-triaza-bicyclo[7.7.6]docos-15-en-20-yl)-propionic acid tert-butyl ester”, the ring closure, isolated yield (disulfide bond, 15-membered ring, I2, CH2Cl2/MeOH 9:1, 0.39 mM) was 32% and 26%.
Molecule “3-((E)-(1S,10S,21R)-7,7-Cyclopropyl-3,6,9,19,22-pentaoxo-2-oxa-12,13-dithia-5,8,20,23-tetraaza-bicyclo[8.7.6]tricos-16-en-21-yl)-propionic acid tert-butyl ester” has a ring closure, isolated yield (disulfide bond, 15-membered ring, I2, CH2Cl2/MeOH 9:1, 0.4 mM, 25.0 °C) of 65%.
“3-((E)-(1S,10S,21R)-7,7-Dimethyl-3,6,9,19,22-pentaoxo-2-oxa-12,13-dithia-5,8,20,23-tetraaza-bicyclo[8.7.6]tricos-16-en-21-yl)-propionic acid tert-butyl ester” gave a ring closure, isolated yield (disulfide bond, 15-membered ring, I2, CH2Cl2/MeOH 9:1, 0.35 mM, 25.0 °C) of 81%.
For “3-((E)-(1S,10S,21R)-7-cyclobutyl-3,6,9,19,22-pentaoxo-2-oxa-12,13-dithia-5,8,20,23-tetraaza-bicyclo[8.7.6]tricos-16-en-21-yl)-propionic acid tert-butyl ester”, the ring closure, isolated yield (disulfide bond, 15-membered ring, I2, CH2Cl2/MeOH 9:1, 0.46 mM) was 93%.
`CC(C)(C)OC(=O)CC[C@H]1NC(=O)CC(/C=C/CCSC(c2ccccc2)(c2ccccc2)c2ccccc2)OC(=O)CNC(=O)C2(CCC2)NC(=O)C(CSC(c2ccccc2)(c2ccccc2)c2ccccc2)NC1=O` (stereo in doubt) showed a ring closure, isolated yield (from (3S,4E)-3-hydroxy-7-(tritylthio)hept-4-enoyl-dGlu(tBu)-dCys(Trt)-Ac4c-Gly-OH, ester bond, 16-membered ring, MNBA/DMAP, CH2Cl2/THF, 1.13 mM, 2 steps) of 51%.
`CC(C)[C@H]1NC(=O)[C@@H](CSC(c2ccccc2)(c2ccccc2)c2ccccc2)NC(=O)C(C)(C)NC(=O)CC(/C=C/CCSC(c2ccccc2)(c2ccccc2)c2ccccc2)OC(=O)CNC1=O` (stereo in doubt) gave a ring closure, isolated yield (from (3S,4E)-3-hydroxy-7-(tritylthio)hept-4-enoyl-Aib-dCys(Trt)-dVal-Gly-OH, ester bond, 16-membered ring, MNBA/DMAP, CH2Cl2/THF, 1.0 mM, 2 steps) of 47%.
Work on `O=C1CC(/C=C/CCSC(c2ccccc2)(c2ccccc2)c2ccccc2)OC(=O)CNC(=O)C2(CC2)NC(=O)[C@@H](CSC(c2ccccc2)(c2ccccc2)c2ccccc2)NC(=O)[C@@H](Cc2ccncc2)N1` (stereo in doubt) yielded a ring closure, isolated yield (from (3S,4E)-3-hydroxy-7-(tritylthio)hept-4-enoyl-d4Pal-dCys(Trt)-Acc(1-aminocyclopropanecarbonyl)-Gly-OH, ester bond, 16-membered ring, MNBA/DMAP, CH2Cl2/THF, 0.97 mM, 2 steps) of 54%.
“(E)-(1S,10S)-7,7-Cyclopropyl-2-oxa-12,13-dithia-5,8,20,23-tetraaza-bicyclo[8.7.6]tricos-16-ene-3,6,9,19,22-pentaone” gave a ring closure, isolated yield (disulfide bond, 15-membered ring, I2, CH2Cl2/MeOH 9:1, 0.2 mM) of 53%.
For “(E)-(1S,10S)-7-Isopropyl-21,21-cyclopropyl-2-oxa-12,13-dithia-5,8,20,23-tetraaza-bicyclo[8.7.6]tricos-16-ene-3,6,9,19,22-pentaone”, the ring closure, isolated yield (disulfide bond, 15-membered ring, I2, CH2Cl2/MeOH 9:1) was 76%.
For “(E)-(1S,10S,21R)-7,7-Cyclopropyl-21-pyridin-3-ylmethyl-2-oxa-12,13-dithia-5,8,20,23-tetraaza-bicyclo[8.7.6]tricos-16-ene-3,6,9,19,22-pentaone”, the ring closure, isolated yield (disulfide bond, 15-membered ring, I2 (10 eq), CH2Cl2/MeOH 9:1, 0.35 mM) was 24%.
“(E)-(1S,10S,21R)-7-cyclopropyl-21-pyridin-4-ylmethyl-2-oxa-12,13-dithia-5,8,20,23-tetraaza-bicyclo[8.7.6]tricos-16-ene-3,6,9,19,22-pentaone” showed a ring closure, isolated yield [1] of 2%.
In the case of “(E)-(1S,10S,21R)-21-(3-Chloro-benzyl)-7,7-cyclopropyl-2-oxa-12,13-dithia-5,8,20,23-tetraaza-bicyclo[8.7.6]tricos-16-ene-3,6,9,19,22-pentaone”, the ring closure, isolated yield (disulfide bond, 15-membered ring, I2, CH2Cl2/MeOH 9:1, 0.19 mM) was 32%.
Molecule “(E)-(1S,10S,21R)-21-Benzyl-7,7-cyclopropyl-2-oxa-12,13-dithia-5,8,20,23-tetraaza-bicyclo[8.7.6]tricos-16-ene-3,6,9,19,22-pentaone” has a ring closure, isolated yield [1] of 81%.
